Experimental data published in patent US20110097405A1, “ESTRADIOL-CONTAINING DRUG DELIVERY SYSTEM” (Bayer Schering Pharma Aktiengesellschaft, priority 2008, published 2011).

Experiments:
[1] = Kuhnt et al.; cited from earlier work
[2] = Clinical study (PK study): relative bioavailability and PK profile of estradiol after wafers vs oral tablet and intranasal spray; format: in vivo, healthy postmenopausal women; details: female, human
Procedure: Finally, it is the present inventors' experience that the serum estradiol values are somewhat dependent on the applied laboratory assay.
The following not-dose-normalised data, where all parameters are expressed in percentage of the respective Aerodiol® values, were obtained:
Estradiol may be determined by two different assays:
The analytes and their deuterated internal standards are extracted from 1.00 ml of human serum using BondElut Certify® solid-phase cartridges. Estradiol and estrone are eluted from the solid phase cartridges with ethyl acetate. The analytes undergo three separate derivatisation steps: (1) reaction with pentafluorobenzoyl chloride, (2) reaction with O-(2,3,4,5,6-pentafluorobenzyl)-hydroxylamine hydrochloride, and (3) reaction with MSTFA. The derivatised analytes are then separated by gas chromatography using a DB-17 fused silica capillary column and detected by tandem mass spectrometry using negative ion chemical ionization. A 1/(concentration)^2 weighted least-squares regression procedure is used to fit a linear function to the calibration data.
A 500 μl sample aliquot is fortified with 25 μl of internal standard working solution. Analytes are isolated through liquid-liquid extraction with 5.0 ml of 10:90 (v/v) ethyl acetate/hexane. The solvent is evaporated under a stream of nitrogen at 40-50° C. and the remaining residue is derivatizsd. The derivatised analytes are extracted into 3.0 m of 10:90 (v/v) ethyl acetate/hexane, the solvent is evaporated, and the remaining residue is reconstituted with 150 μl acetonitrile and 200 μl water. The final extract is analyzed via high-performance liquid chromatography with tandem mass spectrometry detection.

[3] = intranasal, cited from earlier work

Row | Cmax ([2]; serum, 90 ug) [ng/mL] | bioavailability ([2]; in vivo) | bioavailability, usually ([2]; in vivo) | SMILES | bioavailability after oral administration [1] | time until pre-treatment level is reached ([3]; after administration) | time to maximum plasma levels [3] [min]
1 | 0.5 to 0.8 | – | – | C[C@]12CC[C@@H]3c4ccc(O)cc4CC[C@H]3[C@@H]1CC[C@@H]2O [estradiol] | about 5% | about 12 hours | 10 to 30
2 | – | 30-60% | 30-50% | CCCCC(=O)O[C@H]1CC[C@H]2[C@@H]3CCc4cc(O)ccc4[C@H]3CC[C@]12C [estradiol valerate] | – | – | –
